Results published in patent US10988524B2, “Modified relaxin B chain peptides and their therapeutic use” (priority 2018, dated 2021).
Non-standard residues stand in square brackets, D forms with d. Residues, ends and D or L forms follow the SMILES beside them. αMeL = CC(C)C[C@](C)(N)C(=O)O; Nle = CCCC[C@H](N)C(=O)O; Aib = CC(C)(N)C(=O)O

Tests used:
[1] = Stability in human plasma; assay type: in vitro ADME; settings: 37° C.; for Human Plasma stability % remaining, T = 0: 5 μM; for remaining at 1 h, 5 μM / remaining at 4 h, 5 μM: human plasma (sodium or lithium heparin)
Experimental: (§1) Prior to the testing of stability in plasma of a peptide batch, its purity (HPLC-UV) was determined.
(§2) Rat and Human plasma: anti-coagulant sodium or lithium heparin.
(§3) 100 μM solution of study compound in 50 mM Phosphate buffer pH 7.4.
(§4) 950 μL plasma is pre-incubated for 5 min at 37° C. 50 μL of compound stock solution is added. Final compound concentration=5 μM. Vortex and transfer 1504, plasma into an Eppendorf for each time point. The time points 0-1 and −4 h are carried out in duplicate for each species.
(§5) After incubation extract 1504, plasma with 6004, Acetonitrile containing with 1% TFA. Vortex and centrifuge 10 min at 14600 rpm. Dry 2004, supernatant under N2. Reconstitute sample in 200 μL of H2O/CH3CN 98/2+0.1% FA+50 ng/ml Labetalol and analyze using the analytical system used in solubility and stability studies.
(§6) For determination of the amount of the remaining peptide, the peak areas of the target compound at t0 and each time point […] were compared, resulting in “% remaining peptide”, following the equation
(§7) % remaining peptide=[(peak area peptide time)×100]/peak area peptide t0. The stability is expressed as “% remaining peptide”.

Stability in rat plasma = assay type: in vitro ADME; settings: 37° C.; for Rat plasma stability % remaining, T = 0: 5 μM; for remaining at 1 h, 5 μM / remaining at 4 h, 5 μM: rat plasma (sodium or lithium heparin)
Experimental: as §1, §2, §3, §4, §5, §6, §7

[2] = Solubility testing of peptides in buffer; assay type: physicochemical; settings: Phosphate buffer 50 mM pH 7.4; target solubility 2.0 mg/ml; ~19 h; read-out: Solubility phosphate buffer pH 7.4
RXFP1 = molecular target: T1, RXFP1 (Homo sapiens, UniProt Q9HBX9); test: OVCAR5 cAMP assay (RXFP1 agonist activity, HTRF); settings: for Emax: OVCAR-5, read-out: cAMP assay in OVCAR 5 cells Emax, maximal intracellular cAMP relative to H2-relaxin in the same test occasion; for EC50: cAMP assay in OVCAR 5 cells EC50 (nM), OVCAR5 cells expressing endogenous RXFP1, cAMP by HTRF, 30 min at 37° C., 1 mM IBMX
T1 sequence (Q9HBX9 1-757): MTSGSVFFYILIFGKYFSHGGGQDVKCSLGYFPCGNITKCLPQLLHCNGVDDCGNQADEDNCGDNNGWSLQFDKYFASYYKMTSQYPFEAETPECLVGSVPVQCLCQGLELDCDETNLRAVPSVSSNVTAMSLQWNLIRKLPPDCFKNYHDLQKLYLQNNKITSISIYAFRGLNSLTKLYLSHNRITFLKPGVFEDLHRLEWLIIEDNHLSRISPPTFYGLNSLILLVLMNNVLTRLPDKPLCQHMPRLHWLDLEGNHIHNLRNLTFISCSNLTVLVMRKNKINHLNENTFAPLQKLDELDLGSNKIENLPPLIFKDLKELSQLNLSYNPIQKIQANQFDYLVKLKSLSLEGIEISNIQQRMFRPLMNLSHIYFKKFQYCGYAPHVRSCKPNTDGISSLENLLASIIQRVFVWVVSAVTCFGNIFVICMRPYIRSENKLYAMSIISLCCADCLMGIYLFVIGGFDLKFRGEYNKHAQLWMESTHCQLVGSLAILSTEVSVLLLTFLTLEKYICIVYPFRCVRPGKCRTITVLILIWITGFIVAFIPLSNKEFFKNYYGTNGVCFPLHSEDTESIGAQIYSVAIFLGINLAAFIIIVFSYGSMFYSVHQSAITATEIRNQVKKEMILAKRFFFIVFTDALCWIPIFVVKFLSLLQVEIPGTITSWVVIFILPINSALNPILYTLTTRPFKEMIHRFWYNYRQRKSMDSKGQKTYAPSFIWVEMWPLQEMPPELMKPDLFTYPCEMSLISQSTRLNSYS

Human Plasma stability % remaining, T = 0 [1] | Rat plasma stability % remaining, T = 0 (Stability in rat plasma) | solubility [2] | Emax (RXFP1) | Compound | other results
100% | 100% | – | – | Ac-VIKLSGRELVRAQIAISGMSTWSKKKK-NH2 [KKKK(AcB7-29 C11.23S), reference compound] | –
– | – | ≥ 2300 µg/mL | 90% | CCCC[C@H](NC(=O)CNC(=O)[C@H](CCC(=O)O)NC(=O)C(C)(C)NC(=O)C(C)(C)NC(=O)[C@@H](NC(=O)[C@H](CCC(N)=O)NC(=O)[C@H](C)NC(=O)[C@H](CCCNC(=N)N)NC(=O)[C@@H](NC(=O)[C@H](CCCCN)NC(=O)[C@H](CCC(=O)O)NC(=O)[C@H](CCCNC(=N)N)NC(=O)CNC(=O)[C@H](CCC(=O)O)NC(=O)[C@H](CC(C)C)NC(C)=O)C(C)C)[C@@H](C)CC)C(=O)N[C@@H](CO)C(=O)N[C@H](C(=O)N[C@@H](Cc1c[nH]c2ccccc12)C(=O)N[C@@H](CO)C(=O)NC(C)(C)C(=O)N[C@@H](CCCNC(=N)N)C(=O)N[C@@H](CCCNC(=N)N)C(=O)N[C@@H](CCCNC(=N)N)C(N)=O)[C@@H](C)O [compound 50] (Ac-LEGREKVRAQI[Aib][Aib]EG[Nle]STWS[Aib]RRR-NH2) | EC50 (RXFP1): ≤ 5 nM
– | – | ≥ 2000 µg/mL | 93% | CC[C@H](C)[C@H](NC(=O)[C@H](CCC(N)=O)NC(=O)[C@H](C)NC(=O)[C@H](CCCNC(=N)N)NC(=O)[C@@H](NC(=O)[C@H](CCCCN)NC(=O)[C@H](CCC(=O)O)NC(=O)[C@H](CCCNC(=N)N)NC(=O)CNC(=O)[C@H](CCC(=O)O)NC(=O)[C@H](CC(C)C)NC(C)=O)C(C)C)C(=O)NC(C)(C)C(=O)NC(C)(C)C(=O)N[C@@H](CCC(=O)O)C(=O)NCC(=O)N[C@@H](CCC(N)=O)C(=O)N[C@@H](CO)C(=O)N[C@H](C(=O)N[C@@H](Cc1ccc(O)cc1)C(=O)N[C@@H](CO)C(=O)NC(C)(C)C(=O)N[C@@H](CCCNC(=N)N)C(=O)N[C@@H](CCCCN)C(=O)N[C@@H](CCCCN)C(N)=O)[C@@H](C)O [compound 58] (Ac-LEGREKVRAQI[Aib][Aib]EGQSTYS[Aib]RKK-NH2) | –
– | – | ≥ 2300 µg/mL | 94% | CCCC[C@H](NC(=O)CNC(=O)[C@H](CCC(=O)O)NC(=O)C(C)(C)NC(=O)C(C)(C)NC(=O)[C@@H](NC(=O)[C@H](CCC(N)=O)NC(=O)[C@H](C)NC(=O)[C@H](CCCNC(=N)N)NC(=O)[C@@H](NC(=O)[C@H](CCCCN)NC(=O)[C@H](CCC(=O)O)NC(=O)[C@H](CCCNC(=N)N)NC(=O)CNC(=O)[C@H](CCC(=O)O)NC(=O)[C@H](CC(C)C)NC(C)=O)C(C)C)[C@@H](C)CC)C(=O)N[C@@H](CO)C(=O)N[C@@H](CCC(N)=O)C(=O)N[C@@H](Cc1c[nH]c2ccccc12)C(=O)N[C@@H](CO)C(=O)NC(C)(C)C(=O)N[C@@H](CCCNC(=N)N)C(=O)N[C@@H](CCCNC(=N)N)C(=O)N[C@@H](CCCNC(=N)N)C(N)=O [compound 52] (Ac-LEGREKVRAQI[Aib][Aib]EG[Nle]SQWS[Aib]RRR-NH2) | EC50 (RXFP1): ≤ 10 nM
100% | 100% | – | 99% | CC[C@H](C)[C@H](NC(=O)[C@H](CCC(N)=O)NC(=O)[C@H](C)NC(=O)[C@H](CCCNC(=N)N)NC(=O)[C@@H](NC(=O)[C@H](CCCCN)NC(=O)[C@H](CCC(=O)O)NC(=O)[C@H](CCCNC(=N)N)NC(=O)CNC(=O)[C@H](CCC(=O)O)NC(=O)[C@H](CC(C)C)NC(C)=O)C(C)C)C(=O)NC(C)(C)C(=O)NC(C)(C)C(=O)N[C@@H](CCC(=O)O)C(=O)NCC(=O)N[C@@H](CCSC)C(=O)N[C@@H](CO)C(=O)N[C@@H](CCCCN)C(=O)N[C@@H](Cc1c[nH]c2ccccc12)C(=O)N[C@@H](CO)C(=O)N[C@@H](CCCCN)C(=O)N[C@@H](CCCNC(=N)N)C(=O)N[C@@H](CCCCN)C(=O)N[C@@H](CCCCN)C(N)=O [compound 2] (Ac-LEGREKVRAQI[Aib][Aib]EGMSKWSKRKK-NH2) | remaining at 1 h, 5 μM [1]: 80%; remaining at 4 h, 5 μM [1]: 79%; remaining at 1 h, 5 μM (Stability in rat plasma): 57%; remaining at 4 h, 5 μM (Stability in rat plasma): 24%
– | – | ≥ 2400 µg/mL | 98% | CCCC[C@H](NC(=O)CNC(=O)[C@H](CCC(=O)O)NC(=O)C(C)(C)NC(=O)C(C)(C)NC(=O)[C@@H](NC(=O)[C@H](CCC(N)=O)NC(=O)[C@H](C)NC(=O)[C@H](CCCNC(=N)N)NC(=O)[C@@H](NC(=O)[C@H](CCCCN)NC(=O)[C@H](CCC(=O)O)NC(=O)[C@H](CCCNC(=N)N)NC(=O)CNC(=O)[C@H](CCC(=O)O)NC(=O)[C@H](CC(C)C)NC(C)=O)C(C)C)[C@@H](C)CC)C(=O)N[C@@H](CO)C(=O)N[C@H](C(=O)N[C@@H](Cc1ccccc1)C(=O)N[C@@H](CO)C(=O)NC(C)(C)C(=O)N[C@@H](CCCNC(=N)N)C(=O)N[C@@H](CCCCN)C(=O)N[C@@H](CCCCN)C(N)=O)[C@@H](C)O [compound 51] (Ac-LEGREKVRAQI[Aib][Aib]EG[Nle]STFS[Aib]RKK-NH2) | –
100% | 100% | – | – | Ac-VIKLSGRELVRAQIAISGMSTWSKRSL-NH2 [AcB7-33 C11.23S, reference compound] | –
– | – | ≥ 2500 µg/mL | 88% | CCCC[C@H](NC(=O)CNC(=O)[C@H](CCC(=O)O)NC(=O)C(C)(C)NC(=O)C(C)(C)NC(=O)[C@@H](NC(=O)[C@H](CCC(N)=O)NC(=O)[C@H](C)NC(=O)[C@H](CCCNC(=N)N)NC(=O)[C@@H](NC(=O)[C@H](CCCCN)NC(=O)[C@H](CCC(=O)O)NC(=O)[C@H](CCCNC(=N)N)NC(=O)CNC(=O)[C@H](CCC(=O)O)NC(=O)[C@H](CC(C)C)NC(C)=O)C(C)C)[C@@H](C)CC)C(=O)N[C@@H](CO)C(=O)N[C@@H](CCCNC(=N)N)C(=O)N[C@@H](Cc1c[nH]c2ccccc12)C(=O)N[C@@H](CO)C(=O)NC(C)(C)C(=O)N[C@@H](CCCNC(=N)N)C(=O)N[C@@H](CCCNC(=N)N)C(=O)N[C@@H](CCCNC(=N)N)C(N)=O [compound 55] (Ac-LEGREKVRAQI[Aib][Aib]EG[Nle]SRWS[Aib]RRR-NH2) | EC50 (RXFP1): ≤ 5 nM
100% | 100% | – | 91% | CC[C@H](C)[C@H](NC(=O)[C@H](CCC(N)=O)NC(=O)[C@H](C)NC(=O)[C@H](CCCNC(=N)N)NC(=O)[C@@H](NC(=O)[C@H](CCCCN)NC(=O)[C@H](CCC(=O)O)NC(=O)[C@H](CCCNC(=N)N)NC(=O)CNC(=O)[C@H](CCC(=O)O)NC(=O)[C@H](CC(C)C)NC(C)=O)C(C)C)C(=O)NC(C)(C)C(=O)N[C@H](C(=O)N[C@@H](CCC(=O)O)C(=O)NCC(=O)N[C@@H](CCSC)C(=O)N[C@@H](CO)C(=O)N[C@@H](CCCCN)C(=O)N[C@@H](Cc1c[nH]c2ccccc12)C(=O)N[C@@H](CO)C(=O)N[C@@H](CCCCN)C(=O)N[C@@H](CCCNC(=N)N)C(=O)N[C@@H](CCCCN)C(=O)N[C@@H](CCCCN)C(N)=O)[C@@H](C)CC [compound 1] (Ac-LEGREKVRAQI[Aib]IEGMSKWSKRKK-NH2) | remaining at 1 h, 5 μM [1]: 71%; remaining at 4 h, 5 μM [1]: 55%; remaining at 1 h, 5 μM (Stability in rat plasma): 72%; remaining at 4 h, 5 μM (Stability in rat plasma): 17%
100% | 100% | – | – | H-VIKLSGRELVRAQIAISGMSTWSKRSL-NH2 [B7-33 C11.23S, reference compound] | –
– | – | – | 95% | CCCC[C@H](NC(=O)CNC(=O)[C@H](CCC(=O)O)NC(=O)C(C)(C)NC(=O)C(C)(C)NC(=O)[C@@H](NC(=O)[C@H](CCCCNC(C)=O)NC(=O)[C@H](C)NC(=O)[C@H](CCCNC(=N)N)NC(=O)[C@@H](NC(=O)[C@H](CCCCN)NC(=O)[C@H](CCC(=O)O)NC(=O)[C@H](CCCNC(=N)N)NC(=O)CNC(=O)[C@H](CCC(=O)O)NC(=O)[C@](C)(CC(C)C)NC(C)=O)C(C)C)[C@@H](C)CC)C(=O)N[C@@H](CO)C(=O)N[C@H](C(=O)N[C@@H](Cc1c[nH]c2ccccc12)C(=O)N[C@@H](CO)C(=O)NC(C)(C)C(=O)N[C@@H](CCCNC(=N)N)C(=O)N[C@@H](CCCCN)C(=O)N[C@@H](CCCCNC(C)=O)C(N)=O)[C@@H](C)O [compound 56] (Ac-[αMeL]EGREKVRAK(Ac)I[Aib][Aib]EG[Nle]STWS[Aib]RKK(Ac)-NH2) | –
